According to patent US10143201B2, “Fungicidal compositions” (Syngenta Crop Protection LLC, priority 2007, dated 2018):
Several values for one entry are separate records, joined by “and”; a condition that tells them apart may be missing. Identical values can stand only once. Like-named read-outs stand apart in the source and are kept apart here.

What was measured:
Phakopsora pachyrhizi = assay: Action against Asian soybean rust, leaf disc test; assay type: in vivo; details: 14 days after inoculation
Experimental: Example B-1: Action Against Asian Soybean Rust (Phakopsora pachyrhizi)—Leaf Disc Test
Whole soybean plants (variety brand Williams82) are treated with the recited active ingredients 4 weeks after planting. 1 day after spraying leaf disks are cut from the first trifoliate leaf. Five repetitions at each rate are conducted. The leaf disks are inoculated with Phakopsora pachyrhizi (Asian soybean rust) one day after treatment. Evaluation of the leaf disks is conducted fourteen days after inoculation and the mean percent infestation of the five repetitions is calculated. Standard EC100 formulations are used. The rates of the active ingredients used are given in Table B1 as g active ingredient (a.i.)/ha.

Botrytis cinerea = assay: Fungicidal action against Botrytis cinerea (gray mould), microtiter growth inhibition; assay type: cell-based; details: alone
Experimental: Example B2: Fungicidal Action Against Botrytis cinerea (Gray Mould)
(§1) Conidia of the fungus from cryogenic storage are directly mixed into nutrient broth (PDB potato dextrose broth). After placing a (DMSO) solution of the test compounds into a microtiter plate (96-well format) the nutrient broth containing the fungal spores is added. The test plates are incubated at 24° C. and the inhibition of growth is evaluated after 4 days. The expected fungicidal action is calculated according to the Colby method.

Septoria tritici = assay: Fungicidal action against Septoria tritici (leaf blotch), microtiter growth inhibition; assay type: cell-based; details: for % activity: alone
Experimental: Example B3: Fungicidal Action Against Septoria tritici (Leaf Blotch)
as §1

Alternaria solani = assay: Fungicidal action against Alternaria solani (early blight tomato/potato), microtiter growth inhibition; assay type: cell-based; details: alone
Experimental: Example B4: Fungicidal Action Against Alternaria solani (Early Blight Tomato/Potato)
Conidia of the fungus from cryogenic storage are directly mixed into nutrient broth (PDB potato dextrose broth). After placing a (DMSO) solution of the test compounds into a microtiter plate (96-well format) the nutrient broth containing the fungal spores is added. The test plates are incubated at 24° C. and the inhibition of growth is evaluated after 3 days. The expected fungicidal action is calculated according to the Colby method.

[1] = tested on: Pseudocercosporella herpotrichoides (syn. Tapesia yallundae); assay: Fungicidal action against Pseudocercosporella herpotrichoides (eye spot of cereals), microtiter growth inhibition; assay type: cell-based; details: alone
Experimental: Example B5: Funicidal Action Against Pseudocercosporella herpotrichoides (Syn. Tapesia yallundae), Eye Spot of Cereals
as §1

Pyrenophora teres = assay: Fungicidal action against Pyrenophora teres (net blotch), microtiter growth inhibition; assay type: cell-based
Experimental: Example B6: Fungicidal Action Against Pyrenophora teres (Net Blotch)
as §1

Gaeumannomyces graminis = assay: Fungicidal action against Gaeumannomyces graminis (take-all of cereals), microtiter growth inhibition; assay type: cell-based; details: for inhibition at 0.0039 ppm / inhibition at 0.0078 ppm / inhibition at 0.0313 ppm / inhibition at 0.0625 ppm: read-out: % activity; for inhibition at 0.25 ppm: 0.2500 ppm; for inhibition at 0.5 ppm: 0.5000 ppm
Experimental: Example B7: Fungicidal Action Against Gaeumannomyces graminis (Take-all of Cereals)
Mycelial fragments of the fungus from cryogenic storage are directly mixed into nutrient broth (PDB potato dextrose broth). After placing a (DMSO) solution of the test compounds into a microtiter plate (96-well format) the nutrient broth containing the fungal spores is added. The test plates are incubated at 24 C and the inhibition of growth is evaluated after 4 days.

[2] = tested on: Cercospora arachidicola (syn. Mycosphaerella arachidis); assay: Fungicidal action against Cercospora arachidicola (brown leaf spot of groundnut), microtiter growth inhibition; assay type: cell-based; details: for inhibition at 0.0039 ppm / inhibition at 0.0078 ppm: read-out: % activity; for inhibition at 0.125 ppm: 0.1250 ppm
Experimental: Example B8: Fungicidal Action Against Cercospora arachidicola (Syn. Mycosphaerella arachidis), Brown Leaf Spot of Groundnut (Peanut)
Conidia of the fungus from cryogenic storage are directly mixed into nutrient broth (PDB potato dextrose broth). After placing a (DMSO) solution of the test compounds into a microtiter plate (96-well format) the nutrient broth containing the fungal spores is added. The test plates are incubated at 24 C and the inhibition of growth is evaluated after 7 days.

[3] = tested on: Monopraphella nivalis (syn. Microdochium nivale, Fusarium nivale); assay: Fungicidal action against Monopraphella nivalis (snow mould, foot rot of cereals), microtiter growth inhibition; assay type: cell-based; details: compound alone
Experimental: Example B9: Fungicidal Action Against Monopraphella nivalis (Syn. Microdochium nivale, Fusarium nivale), Snow Mould, Foot Rot of Cereals
Conidia of the fungus from cryogenic storage are directly mixed into nutrient broth (PDB potato dextrose broth). After placing a (DMSO) solution of the test compounds into a microtiter plate (96-well format) the nutrient broth containing the fungal spores is added. The test plates are incubated at 24 C and the inhibition of growth is evaluated after 4 days.

[4] = tested on: Colletotrichum lagenarium (syn. Glomerella lagenarium); assay: Fungicidal action against Colletotrichum lagenarium (anthracnose of cucurbits), microtiter growth inhibition; assay type: cell-based; details: Colletotrichum orbiculare; compound alone, 0.1250 ppm
Experimental: Example B10: Fungicidal Action Against Colletotrichum lagenarium (Syn. Glomerella lagenarium), Anthracnose of Cucurbits Conidia of the fungus from cryogenic storage are directly mixed into nutrient broth (PDB potato dextrose broth). After placing a (DMSO) solution of the test compounds into a microtiter plate (96-well format) the nutrient broth containing the fungal spores is added. The test plates are incubated at 24 C and the inhibition of growth is evaluated after 3 days.

[5] = Mycosphaerella arachidis, compound alone, 0.0313 ppm
[6] = Gaeumannomyces graminis, compound alone, 0.0039 ppm
[7] = Gaeumannomyces graminis, compound alone, 0.0078 ppm
[8] = Gaeumannomyces graminis, compound alone
[9] = Mycosphaerella arachidis, compound alone
[10] = Zymoseptoria tritici, read-out: % activity
[11] = Pyrenophora teres, read-out: % activity
[12] = Gaeumannomyces graminis, compound alone, 0.0625 ppm

Cn1cc(C(=O)Nc2cccc3c2C2CCC3C2=C(Cl)Cl)c(C(F)F)n1 (stereo not shown) [Compound A-1.1, 3-difluoromethyl-1-methyl-1H-pyrazole-4-carboxylic acid (9-dichloromethylidene-benzonorbornene-5-yl)amide]
% Control of Phakopsora pachyrhizi (Phakopsora pachyrhizi; 31.25 g a.i./ha): 36%
% Control of Phakopsora pachyrhizi (Phakopsora pachyrhizi; 62.5 g a.i./ha): 36%
% Control of Phakopsora pachyrhizi (Phakopsora pachyrhizi; 125 g a.i./ha): 82%
% Control of Phakopsora pachyrhizi (Phakopsora pachyrhizi; 250 g a.i./ha): 87%
% activity (Botrytis cinerea; 0.0156 ppm): 0%
% activity (Botrytis cinerea; 0.0313 ppm): 0%
% activity (Botrytis cinerea; 0.0625 ppm): 20%
% activity (Botrytis cinerea; 0.1250 ppm): 20%
% activity (Botrytis cinerea; 0.5000 ppm): 50% and 70%
% activity (Botrytis cinerea; 1.0000 ppm): 90%
% activity (Septoria tritici; 0.0625 ppm): 20%
% activity (Septoria tritici; 0.1250 ppm): 50%
% activity (Septoria tritici; 0.2500 ppm): 70%
% activity (Septoria tritici; 0.5000 ppm): 90%
% activity (Alternaria solani; 0.0078 ppm): 0%
% activity (Alternaria solani; 0.0156 ppm): 20%
% activity (Alternaria solani; 0.0313 ppm): 20%
% activity (Alternaria solani; 0.0625 ppm): 50%
% activity (Alternaria solani; 0.1250 ppm): 50%
% activity (Alternaria solani; 0.2500 ppm): 50%
% activity ([1]; 0.0039 ppm): 0%
% activity ([1]; 0.0078 ppm): 0%
% activity ([1]; 0.0625 ppm): 70%
% activity (Pyrenophora teres; 0.0078 ppm, alone): 0%
% activity (Pyrenophora teres; 0.0313 ppm, alone): 20%
% activity (Pyrenophora teres; 0.0625 ppm, alone): 20%
% activity (Pyrenophora teres; 0.1250 ppm, alone): 20%
% activity (Pyrenophora teres; 0.2500 ppm, alone): 50%
% activity (Pyrenophora teres; compound alone, 0.0313 ppm): 20%
% activity (Pyrenophora teres; compound alone, 0.0625 ppm): 20%
% activity (Pyrenophora teres; compound alone, 0.2500 ppm): 50%
% activity (Pyrenophora teres; compound alone, 0.5000 ppm): 50% and 70%
% activity (Pyrenophora teres; compound alone, 1.0000 ppm): 70%
% activity (Pyrenophora teres; compound alone, 2.0000 ppm): 70%
% activity (Gaeumannomyces graminis; compound alone, 0.0156 ppm): 50% and 70%
% activity ([2]; compound alone, 0.0039 ppm): 0%
% activity ([2]; compound alone, 0.0078 ppm): 0%
% activity ([2]; compound alone, 0.0156 ppm): 20%
% activity ([2]; compound alone, 0.0313 ppm): 70%
% activity ([3]; 0.0313 ppm): 20%
% activity ([3]; 0.0625 ppm): 50%
% activity ([3]; 0.1250 ppm): 90%

Cn1cc(C(=O)Nc2cccc3c2C2CCC3C2=C(Br)Br)c(C(F)F)n1 (stereo not shown) [Compound A-1.3, 3-difluoromethyl-1-methyl-1H-pyrazole-4-carboxylic acid (9-dibromomethylidene-benzonorbornene-5-yl)amide]
% Control of Phakopsora pachyrhizi (Phakopsora pachyrhizi; 31.25 g a.i./ha): 36%
% Control of Phakopsora pachyrhizi (Phakopsora pachyrhizi; 62.5 g a.i./ha): 36%
% Control of Phakopsora pachyrhizi (Phakopsora pachyrhizi; 125 g a.i./ha): 54%
% Control of Phakopsora pachyrhizi (Phakopsora pachyrhizi; 250 g a.i./ha): 93%

Cn1cc(C(=O)Nc2ccc(F)cc2-c2ccc(Cl)c(Cl)c2)c(C(F)F)n1 [Compound B-5.11, 3-difluoromethyl-1-methyl-1H-pyrazole-4-carboxylic acid (3′,4′-dichloro-5-fluoro-1,1′-biphenyl-2-yl)-amide]
inhibition at 0.0039 ppm ([2]; Mycosphaerella arachidis, compound alone, 0.0039 ppm): 0%
inhibition at 0.0078 ppm ([2]; Mycosphaerella arachidis, compound alone, 0.0078 ppm): 0%
inhibition at 0.0156 ppm ([2]; Mycosphaerella arachidis, compound alone, 0.0156 ppm): 20%
inhibition at 0.0313 ppm [2, 5]: 70%
inhibition at 0.0313 ppm ([3]; Microdochium nivale, 0.0313 ppm): 0%
inhibition at 0.0625 ppm ([3]; Microdochium nivale, 0.0625 ppm): 0%
inhibition at 0.125 ppm ([3]; Microdochium nivale, 0.1250 ppm): 0%
inhibition at 0.25 ppm ([3]; Microdochium nivale, 0.2500 ppm): 20%

O=C(NCCc1ncc(C(F)(F)F)cc1Cl)c1ccccc1C(F)(F)F [Compound B-5.12, N-{2-[3-chloro-5-(trifluoromethyl)pyridin-2-yl]ethyl}-2-(trifluoromethyl)benzamid]
inhibition at 0.0039 ppm (Gaeumannomyces graminis; [6]): 0%
inhibition at 0.0078 ppm (Gaeumannomyces graminis; [7]): 0%
inhibition at 0.0156 ppm (Gaeumannomyces graminis; Gaeumannomyces graminis, compound alone, 0.0156 ppm): 0%
inhibition at 0.0313 ppm (Gaeumannomyces graminis; Gaeumannomyces graminis, compound alone, 0.0313 ppm): 0%
inhibition at 0.125 ppm (Gaeumannomyces graminis; Gaeumannomyces graminis, compound alone, 0.1250 ppm): 0%
inhibition at 0.25 ppm (Gaeumannomyces graminis; [8]): 0%
inhibition at 0.5 ppm (Gaeumannomyces graminis; [8]): 0%
inhibition at 1 ppm (Gaeumannomyces graminis; Gaeumannomyces graminis, compound alone, 1.0000 ppm): 0%
inhibition at 2 ppm (Gaeumannomyces graminis; Gaeumannomyces graminis, compound alone, 2.0000 ppm): 0%
inhibition at 0.0313 ppm [2, 5]: 0%
inhibition at 0.0625 ppm [2, 9]: 0%
inhibition at 0.125 ppm [2, 9]: 20%
inhibition at 0.25 ppm ([2]; Mycosphaerella arachidis, compound alone, 0.2500 ppm): 20%

CC(C)C1CCC(Cc2ccc(Cl)cc2)C1(O)Cn1cncn1 (stereo not shown) [Ipconazole]
inhibition at 0.125 ppm [4]: 20%

C#CCOc1ccc(CCNC(=O)C(OCC#C)c2ccc(Cl)cc2)cc1OC (stereo not shown) [Mandipropamid, mandipropamid]
inhibition at 0.125 ppm (Septoria tritici; [10]): 0%
inhibition at 0.25 ppm (Septoria tritici; [10]): 0%
inhibition at 0.5 ppm (Septoria tritici; [10]): 0%
inhibition at 0.5 ppm (Pyrenophora teres; [11]): 0%
inhibition at 1 ppm (Pyrenophora teres; [11]): 0%
inhibition at 0.0039 ppm (Gaeumannomyces graminis; Gaeumannomyces graminis): 0%
inhibition at 0.0078 ppm (Gaeumannomyces graminis; Gaeumannomyces graminis): 0%
inhibition at 0.0313 ppm (Gaeumannomyces graminis; Gaeumannomyces graminis): 0%
inhibition at 0.0625 ppm (Gaeumannomyces graminis; Gaeumannomyces graminis): 0%
inhibition at 0.0039 ppm ([2]; Mycosphaerella arachidis): 0%
inhibition at 0.0078 ppm ([2]; Mycosphaerella arachidis): 0%

CCCC1COC(Cn2cncn2)(c2ccc(Cl)cc2Cl)O1 (stereo not shown) [Propiconazole]
inhibition at 1 ppm (Pyrenophora teres; Pyrenophora teres, compound alone, 1.0000 ppm, read-out: % activity): 20%
inhibition at 2 ppm (Pyrenophora teres; Pyrenophora teres, compound alone, 2.0000 ppm): 50%
inhibition at 0.0039 ppm (Gaeumannomyces graminis; [6]): 0%
inhibition at 0.0078 ppm (Gaeumannomyces graminis; [7]): 0%
inhibition at 0.0625 ppm (Gaeumannomyces graminis; [12]): 0%
inhibition at 0.0313 ppm [2, 5]: 20%
inhibition at 0.0625 ppm [2, 9]: 70%
inhibition at 0.125 ppm [2, 9]: 90%

OC(Cc1ccccc1Cl)(Cn1nc[nH]c1=S)C1(Cl)CC1 (stereo not shown) [Prothioconazole]
inhibition at 0.0625 ppm (Gaeumannomyces graminis; [12]): 50%
inhibition at 0.25 ppm (Gaeumannomyces graminis; [8]): 90%
inhibition at 0.5 ppm (Gaeumannomyces graminis; [8]): 90%
inhibition at 0.0625 ppm [2, 9]: 70%
